Counter-ions that a name gives are not always drawn.
**Q.** For `Clc1ccc([C@H]2CCNC[C@@H]2OCc2ccc3ccccc3c2)cc1` (racemic) (as salt: hydrochloride) [Example 12, (3RS,4RS)-4-(4-chloro-phenyl)-3-(naphthalen-2-ylmethoxy)-piperidine], which melting point is on record?
**A.** 159 to 161 °C (dec.)
